For one test, the system named is Akt. The test is described as follows: Insulin-stimulated phosphorylation of Akt in cultured myotubes (Western blot). Format: cell-based. Conditions: peptide and/or chromium (1 μM) 1 h, insulin 5 nm. How it is done: Myotubes were incubated with the peptide and/or chromium (1 μM) for 1 h and stimulated with insulin 5 nm. (A) Representative Western blots of p^308-Akt and Akt, and (B) Densitometric quantitation of the Western blots. Data represent mean±SE (n=3), *p<0.001 versus control **p<0.01 compared to insulin-stimulated glucose uptake (panel A). *p<0.001 versus control ^#p<0.05 compared to insulin-stimulated glucose uptake in untreated cells (panel B).

Test [1] can be described thus: Insulin-stimulated glucose uptake in vivo, tail-vein peptide then intraperitoneal glucose. Conditions: peptide 5 μmol/kg alone or premixed with equimolar chromium via tail-vein; glucose 2 g/kg intraperitoneally. How it is done: The peptide (5 μmol/kg) either alone or premixed with equimolar concentrations of chromium were injected via tail-vein, immediately following which glucose (2 g/kg body weight) was administered intraperitoneally (*p<0.05, n=6-8).

Another test relates to cultured myotubes. The test is described as follows: Insulin-stimulated 2-[3H]-deoxyglucose uptake in cultured myotubes. Format: cell-based. As to conditions: peptide 10 mM and/or chromium 1 h, insulin 50 nM 10 min; 10 mM or 25 mM glucose overnight. How it is done: Myotubes were incubated with the peptide (10 mM) and/or chromium for 1 h and stimulated with insulin (50 nM) for 10 min, and 2-[^3H]-deoxyglucose uptake was assessed. Data represent mean counts per minute (cpm)/mg protein/30 min±SE (n=3). *p<0.01 compared to basal low glucose conditions. **p<0.01 compared to insulin-stimulated low glucose conditions. ***p<0.001 compared to high glucose conditions.

Test [2] is described as follows: Cr:peptide binding ratio after exposure to 10 equivalents of Cr^3+ and G-10 size exclusion chromatography. Conditions: 0.1 mol/L hepes pH 7.4, overnight at 4° C., G-10 separation. From the text:
The intersection points in the isotherms allow the number of tightly binding ions to be estimated. For bovine apoLMWCr, the chromium:oligopeptide ratio at the intersection point is 3.6, which is very close to the average amount of chromium bound to isolated bovine LMWCr, which is 3.5. Titration of bovine LMWCr with Cr^3+ has previously shown that four Cr^3+ ions are required to restore bioactivity. For the synthetic peptides, the intersection points occurred at Cr:peptide ratios of approximately 2, 2, and 4 for EDGEECDCGE (SEQ ID NO: 41), DGEECDCGEE (SEQ ID NO: 42) and pEEEEGDD (SEQ ID NO: 1) (FIG. 6), respectively. This is consistent with the Crpeptides binding ratios found after exposing the peptides to solutions of 10 equivalents of Cr^3+ (CrCl3.6H2O in 0.1 mol/L hepes buffer, pH 7.4 overnight at 4° C.) and separating the peptides from the excess Cr^3+ by G-10 size exclusion chromatography (EDGEECDCGE (SEQ ID NO: 41): 2.0(±0.3), and DGEECDCGEE (SEQ ID NO: 42): 2.0±0.3). A change in mode from specific coordinate covalent binding to just electrostatic absorption on the peptide surface is proposed. Thus, the inflection point of the isotherm for the peptide pEEEEGDD (SEQ ID NO: 1) implies that it tightly binds four Cr^3+ ions. […] The two visible features are readily assigned to d→d transitions from the Cr^3+ centers. […]

Test [3] can be described thus: Chromium binding studies: ultrafiltration equilibrium dialysis with 51CrCl3, Langmuir isotherms and Hill plots. As to conditions: for Langmuir parameter Bt / Langmuir parameter K: Cr^3+ binding, 0.1 mol/L Hepes pH 7.4, 4° C.; for Co-operativity / Kf (Hill plot binding of formation constant) / n (Hill constant): chromium(III) binding, Hill plot; for chromium:oligopeptide ratio at the intersection point of the Langmuir isotherm (number of tightly binding ions): estimated from Langmuir isotherm. The protocol: A variation of the equilibrium dialysis method using an ultrafiltration device was utilized to examine the binding of chromium to the synthetic peptides. Aliquots of a mixture of CrCl3 and ^51CrCl3 were combined to generate different concentrations of Cr(III) while maintaining the synthetic peptide in solution at a constant volume. Known amounts (approximately 0.46 μmol) of peptide and 200 mL of 0.1 mol/L Hepes buffer (pH 7.4) were slowly stirred in an Amicon 8400 ultrafiltration unit (with a YC05 membrane) at 4° C. temperature for at least 12 h to achieve equilibration. The ultrafiltration unit was then pressurized, and effluent was collected. The content of free chromic ion in the effluent was determined by gamma counting using a Packard Cobra II auto-gamma counter. Chromium binding experiments were performed in triplicate, and the synthetic peptide used in at least one of the three sets of triplicates was from a different synthesis. As a control for the chromium-binding experiments, the ultrafiltration procedure was performed without peptide to establish the amount of chromium that adhered to the ultrafiltration unit; all experiments were corrected for this background. Linear regression analyses of the Langmuir isotherms and Hill plots were performed using SigmaPlot 11.0. The Cr concentration of solutions of isolated peptides were determined by graphite furnace atomic absorption spectroscopy using a PerkinElmer Analyst 400 atomic absorption spectrometer equipped with an HGA-900 graphite furnace and an AS-800 autosampler using a chromium hollow cathode lamp operating at 10 mA; a spectral bandwidth of 0.8 nm was selected to isolate the light at 353.7 nm. Chromium standard solution obtained from Perkin Elmer (Waltham, Mass.) was utilized to generate a standard curve.
Errors are presented throughout as standard deviations of the triplicate analyses. Doubly deionized H2O was used throughout. Amino acid analyses of samples were performed by the Protein and Separation Analysis Laboratory at Purdue University. Protein concentrations were determined by the fluorescamine method (Davis et al. “Isolation and characterization of a biologically active form of chromium oligopeptide from bovine liver,” Arch Biochem Biophys. 1997; 339:335-343.) Fluorescence measurements were obtained on a Jobin Yvon FluoroMax-3 fluorescence spectrophotometer. Ultraviolet-visible spectra were obtained using a Hewlett-Packard 8451A or a Beckman Coulter DU 800 spectrophotometer.
As chromium binding to the oligopeptide LMWCr is believed to be through only carboxylate residues and the heptapeptide pEEEEGDD (SEQ ID NO: 1) retains all the aspartate and glutamate residues in LMWCr, whether the heptapeptide can bind chromium in a similar fashion to LMWCr was investigated. The binding of chromium to bovine apoLMWCr prepared by the low pH EDTA method (Davis and Vincent), the heptapeptide pEEEEGDD (SEQ ID NO: 1), and two other acidic peptides was probed. […] The number of Cr^3+ ions binding to the peptides was estimated using Langmuir isotherms. For the Langmuir isotherms of Cr^3+ binding to all the synthetic peptides, Cr binding to apoLMWCr can be represented by two intersecting straight lines with different slopes (FIG. 5)). […] Negative values of the Langmuir parameters Bt and K were found for each peptide: apoLMWCr, −2.69 mmol/g and −109 L/mmol, respectively; EDGEECDCGE (SEQ ID NO: 41), −6.97 mmol/g and −354 L/mmol; DGEECDCGEE (SEQ ID NO: 42), −62.9 mmol/g and −9.94 L/mmol; and pEEEEGDD (SEQ ID NO: 1), −0.73 mmol/g and −151 L/mmol.
To further compare the binding properties between the synthetic peptides and apoLMWCr in CrCl3 solution, the method of Hill was applied to establish the degree of cooperativity between the covalent binding sites with the initial low amounts of substrate in solution, assuming covalent binding sites are occupied before surface adsorption occurs. The total number of tight binding sites established using the Langmuir isotherm was utilized. […]

Non-standard residues stand in square brackets, D forms with d. No end group written: not given here. pGlu = O=C1CC[C@@H](C(=O)O)N1

The values that follow come from patent publication US20130330422A1, “METHODS FOR INCREASING INSULIN SENSITIVITY AND TREATING DIABETES WITH A BIOACTIVE CHROMIUM BINDING PEPTIDE” (The Board of Trustees of the University of Alabama, priority 2012, published 2013).

EEEEGDD: the “insulin-stimulated phosphorylation of Akt (p308-Akt)” value in the test on Akt is reported as “improves insulin-stimulated phosphorylation of Akt”. Further, in test [1], the “insulin-stimulated glucose uptake in vivo” value is recorded as “augments insulin-stimulated glucose uptake in vivo”. Further, in the test with cultured myotubes, the “insulin-stimulated glucose uptake in cultured myotubes” value was “augments insulin-stimulated glucose uptake”.

Consider “EDGEECDCGE [synthetic acidic peptide with the same amino acid composition as bovine LMWCr]”, for which the “Cr:peptide binding ratio” value in test [2] was 2.0(±0.3). In addition, in test [3], the “Langmuir parameter Bt” value was -6.97 mmol/g, the “Langmuir parameter K” value was -354 L/mmol, the Co-operativity result is reported as “Positively co-operative” and the “Kf (Hill plot binding of formation constant)” value (“Kf” below) was 1.48 × 10^23 (mol/L)^−2. In test [3], the “n (Hill constant)” value is 3.64 and the “chromium:oligopeptide ratio at the intersection point of the Langmuir isotherm (number of tightly binding ions)” value (from here on “chromium:oligopeptide ratio”) was “approximately 2”.

Consider “DGEECDCGEE [synthetic acidic peptide with the same amino acid composition as bovine LMWCr]”, for which the “Cr:peptide binding ratio” value in test [2] is 2.0±0.3. Moreover, in test [3], the “Langmuir parameter Bt” value is -62.9 mmol/g, the “Langmuir parameter K” value was -9.94 L/mmol, the Co-operativity result is recorded as “Positively co-operative” and the “Kf” value is reported as 1.01 × 10^11 (mol/L)^−2. In test [3], the “n (Hill constant)” value is reported as 1.85 and the “chromium:oligopeptide ratio” value was “approximately 2”.

For the substance [pGlu]EEEGDD, in test [3], the “Langmuir parameter Bt” value is -0.73 mmol/g, the “Langmuir parameter K” value is -151 L/mmol, the Co-operativity entry is reported as “Positively co-operative” and the “Kf” value is given as 1.92 × 10^20 (mol/L)^−4. Also, in test [3], the “n (Hill constant)” value was 3.82 and the “chromium:oligopeptide ratio” value is roughly 4.
